Key:
[1] = test system: stripped skin on the backs of volunteers; assay: vasoconstriction test (topical anti-inflammatory activity on stripped, hyperemic skin); type: in vivo; conditions: for vasoconstriction, colour value (normal skin = 100, untreated stripped skin = 0): 50 mg topical; for activity in vasoconstriction test compared with hydroxyphenylbutazone: topical, Table I, in words
Description: The topical anti-inflammatory activity of the novel hydroxyphenylbutazone derivatives can be determined employing the conventional vasoconstriction test as follows: On the backs of volunteers for the experiment, the stratum corneum was abraded by the application and tearing off of adhesive tape, conducted 20 times at the same spot, thus producing a pronounced hyperemia. Within the stripped area, respectively 50 mg of ointment containing in each case 0.1% and 0.01%, respectively, of the substance to be tested or of the reference substance in a water-oil base was applied on marked areas. The extent of the vasoconstriction was determined one, four, and eight hours after application. In order to evaluate the vasoconstriction, which is a representative syndrome of topical anti-inflammatory activity the color values of the untreated stripped skin and the treated stripped skin were determined and compred with the color value of the normal skin, wherein the color value of the normal skin was set to be equal to 100 and the color value of the untreated stripped skin was fixed at 0. Minor, moderate, and high-grade vasoconstriction was evaluated with values between 0 and 100. The results are shown in Table I below in which two compounds of this invention (III, IV) were compated with hydroxyphenylbutazone (I) and fluorocortolone.

[2] = test system: right ear of male rats (edema); assay: Edema test, Tonelli method (croton oil ear edema); type: in vivo; conditions: in pyridine/water/ether/croton oil irritant, 3 hours after application
Description: The anti-inflammatory activity of the novel hydroxyphenylbutazone derivatives upon topical application can also be determined in accordance with the Tonelli method, as follows:
The compound to be tested is dissolved in an irritant consisting of 4 parts of pyridine, 1 part of distilled water, 5 parts of ether, and 10 parts of a 4% ether croton oil solution. Felt strips attached to the insides of a slide tweezers are saturated with this text solution and pressed under slight pressure for 15 seconds onto the right ear of male rats weighing 100-160 g.
The left ear remains untreated and serves as control. Three hours after application, the animals are sacrificed and disks of a size of 9 mm. are punched out of their ears. The weight difference between the disk from the right ear and that of the left ear is a measure for the thus-formed edema.
The concentrations of effective agent (ED50) are determined which, when employed, cause a 50% reduction in the formation of edema.

In the case of CCCCC1C(=O)N(c2ccccc2)N(c2ccc(O)cc2)C1=O (stereo not shown) [I, 4-Butyl-1-(4-hydroxyphenyl)-2-phenyl-3,5-pyrazolidinedione], the “vasoconstriction, colour value (normal skin = 100, untreated stripped skin = 0)” value (shortened to “vasoconstriction, colour value”) ([1]; 0.01% ointment, 1 hour) is reported as 18, the “vasoconstriction, colour value” value ([1]; 0.01% ointment, 4 hours) is reported as 25 and the “vasoconstriction, colour value” value ([1]; 0.01% ointment, 8 hours) is reported as 24. For the same molecule, the “vasoconstriction, colour value” value ([1]; 0.1% ointment, 1 hour) was 15, the “vasoconstriction, colour value” value ([1]; 0.1% ointment, 4 hours) was 35 and the “vasoconstriction, colour value” value ([1]; 0.1% ointment, 8 hours) was 33. For the same molecule, the “ED50 (concentration causing 50% reduction in the formation of edema)” value [2] was 8000 µg/mL.
C[C@@H]1C[C@H]2[C@@H]3C[C@H](F)C4=CC(=O)C=C[C@]4(C)[C@H]3[C@@H](O)C[C@]2(C)[C@H]1C(=O)CO [II, 6α-Fluoro-11β,21-dihydroxy-16α-methyl-1,4-pregnadiene-3,20-dione] was tested, and the “vasoconstriction, colour value” value ([1]; 0.01% ointment, 1 hour) was 15, the “vasoconstriction, colour value” value ([1]; 0.01% ointment, 4 hours) was 65 and the “vasoconstriction, colour value” value ([1]; 0.01% ointment, 8 hours) was 85. For the same molecule, the “vasoconstriction, colour value” value ([1]; 0.1% ointment, 1 hour) was 35, the “vasoconstriction, colour value” value ([1]; 0.1% ointment, 4 hours) was 75 and the “vasoconstriction, colour value” value ([1]; 0.1% ointment, 8 hours) was 85. For the same molecule, the “ED50 (concentration causing 50% reduction in the formation of edema)” value [2] was 3400 µg/mL.
In the case of CCCCC1C(=O)N(c2ccccc2)N(c2ccc(OC(=O)CCCCC(=O)Oc3ccc(N4C(=O)C(CCCC)C(=O)N4c4ccccc4)cc3)cc2)C1=O (stereo not shown) [III, Adipic Acid Bis[4-(4-butyl-3,5-dioxo-2-phenylpyrazolidinyl)-phenyl Ester]], the “vasoconstriction, colour value” value ([1]; 0.01% ointment, 1 hour) is reported as 34, the “vasoconstriction, colour value” value ([1]; 0.01% ointment, 4 hours) is reported as 66 and the “vasoconstriction, colour value” value ([1]; 0.01% ointment, 8 hours) is reported as 70. For the same molecule, the “vasoconstriction, colour value” value ([1]; 0.1% ointment, 1 hour) was 44, the “vasoconstriction, colour value” value ([1]; 0.1% ointment, 4 hours) was 72 and the “vasoconstriction, colour value” value ([1]; 0.1% ointment, 8 hours) was 78. For the same molecule, the “activity in vasoconstriction test compared with hydroxyphenylbutazone” value [1] was “substantially more active than hydroxyphenylbutazone” and the “ED50 (concentration causing 50% reduction in the formation of edema)” value [2] was 2100 µg/mL.
CCCCC1C(=O)N(c2ccccc2)N(c2ccc(OC(=O)CCCCCC(=O)Oc3ccc(N4C(=O)C(CCCC)C(=O)N4c4ccccc4)cc3)cc2)C1=O (stereo not shown) [IV, Pimelic Acid Bis[4-(4-butyl-3,5-dioxo-2-phenylpyrazolidinyl)-phenyl Ester]] was tested, and the “vasoconstriction, colour value” value ([1]; 0.01% ointment, 4 hours) was 44, the “vasoconstriction, colour value” value ([1]; 0.01% ointment, 8 hours) was 49 and the “vasoconstriction, colour value” value ([1]; 0.1% ointment, 4 hours) was 65. For the same molecule, the “vasoconstriction, colour value” value ([1]; 0.1% ointment, 8 hours) was 67, the “activity in vasoconstriction test compared with hydroxyphenylbutazone” value [1] was “substantially more active than hydroxyphenylbutazone” and the “ED50 (concentration causing 50% reduction in the formation of edema)” value [2] was 4200 µg/mL.
